# Active and inactive are the calls of the source.
# Experiments:
# SN12K1 = test: cells; format: functional; settings: Homo sapiens
# P388/ADR = test: cells; format: functional; settings: Mus musculus
# P388 = test: cells; format: functional; settings: Mus musculus
# cells [1] = format: functional, cell-based
# cells [2] = format: functional, cell-based; remark: listed apart in the source
# Genome polyprotein = Genome polyprotein (dengue virus type 2, UniProt P29990); test: Dengue-2 NS5 methyltransferase inhibitors, primary screen, biochemical, confirmation dose response (AID 588689); format: functional
# Genome polyprotein, sequence (P29990 2492-3391 limits assumed): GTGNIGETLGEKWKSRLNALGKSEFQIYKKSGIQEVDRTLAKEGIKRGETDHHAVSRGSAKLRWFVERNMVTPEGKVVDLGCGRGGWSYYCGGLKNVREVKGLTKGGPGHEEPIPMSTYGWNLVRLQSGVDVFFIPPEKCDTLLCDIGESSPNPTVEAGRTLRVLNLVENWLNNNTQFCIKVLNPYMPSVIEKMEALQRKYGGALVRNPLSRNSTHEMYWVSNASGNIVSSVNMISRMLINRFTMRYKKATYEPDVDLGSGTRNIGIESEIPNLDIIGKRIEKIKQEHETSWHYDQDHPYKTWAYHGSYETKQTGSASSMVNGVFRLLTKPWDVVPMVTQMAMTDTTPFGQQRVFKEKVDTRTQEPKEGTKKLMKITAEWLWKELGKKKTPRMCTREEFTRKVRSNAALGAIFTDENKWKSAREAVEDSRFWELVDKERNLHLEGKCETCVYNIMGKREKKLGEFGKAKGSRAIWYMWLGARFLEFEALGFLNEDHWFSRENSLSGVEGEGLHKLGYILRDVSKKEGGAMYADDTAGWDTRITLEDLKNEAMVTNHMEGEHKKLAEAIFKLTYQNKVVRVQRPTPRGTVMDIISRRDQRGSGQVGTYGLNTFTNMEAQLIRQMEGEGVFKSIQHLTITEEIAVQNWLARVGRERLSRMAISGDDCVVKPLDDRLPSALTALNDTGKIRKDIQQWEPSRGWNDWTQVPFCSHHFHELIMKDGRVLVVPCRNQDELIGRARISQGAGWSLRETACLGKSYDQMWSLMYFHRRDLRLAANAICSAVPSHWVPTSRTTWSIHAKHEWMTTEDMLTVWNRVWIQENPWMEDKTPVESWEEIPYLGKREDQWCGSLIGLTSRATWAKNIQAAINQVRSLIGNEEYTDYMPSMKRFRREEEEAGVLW
# [3] = target: T1, Adenosylmethionine-8-amino-7-oxononanoate aminotransferase (Mycobacterium tuberculosis, UniProt P9WQ81); test: Mycobacterium tuberculosis BioA enzyme inhibitor Measured in Biochemical System Using Plate Reader - 2163-02_Inhibitor_Dose_CherryPick_Activity.; format: functional, Mycobacterium tuberculosis UT205
# T1 sequence (P9WQ81 whole entry): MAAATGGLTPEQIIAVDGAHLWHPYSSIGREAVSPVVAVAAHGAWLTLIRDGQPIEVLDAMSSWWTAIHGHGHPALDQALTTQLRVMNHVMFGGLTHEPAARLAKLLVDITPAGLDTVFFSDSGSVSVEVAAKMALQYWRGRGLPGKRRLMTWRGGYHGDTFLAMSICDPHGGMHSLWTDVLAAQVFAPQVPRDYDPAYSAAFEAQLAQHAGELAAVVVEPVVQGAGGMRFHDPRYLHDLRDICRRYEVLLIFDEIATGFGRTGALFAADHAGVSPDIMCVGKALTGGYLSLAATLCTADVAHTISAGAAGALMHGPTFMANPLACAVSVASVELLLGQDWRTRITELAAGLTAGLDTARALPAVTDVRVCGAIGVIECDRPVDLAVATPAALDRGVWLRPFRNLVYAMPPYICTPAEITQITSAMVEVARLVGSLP
# Nonstructural protein 1 = Nonstructural protein 1 (Influenza A virus, UniProt Q194T2); format: functional, Influenza A virus (A/California/07/2009(H1N1))
# Nonstructural protein 1, sequence (Q194T2 whole entry): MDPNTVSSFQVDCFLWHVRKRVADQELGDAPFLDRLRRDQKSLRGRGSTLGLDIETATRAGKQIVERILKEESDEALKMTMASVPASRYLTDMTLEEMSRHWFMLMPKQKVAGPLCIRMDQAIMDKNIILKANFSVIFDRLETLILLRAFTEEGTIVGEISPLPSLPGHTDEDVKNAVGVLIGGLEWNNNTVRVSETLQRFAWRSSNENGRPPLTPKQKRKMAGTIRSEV
# [4] = Vero E6 cell cytotoxicity, dose response, cytotoxicity control for non-replicating M. tuberculosis project, secondary assay (AID 492998); format: functional, VeroE6; settings: Vero C1008
# [5] = THP-1 cell cytotoxicity, dose response, cytotoxicity control for non-replicating M. tuberculosis project (AID 489025); format: functional
# [6] = cytotoxicity in MIN6 insulinoma cells, dose response, cytotoxicity control, cell-based, mouse insulinoma (AID 2122); format: functional;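 note: confirmatory high-throughput counterscreen run to flag cytotoxic compounds; mouse MIN-6 beta cells carrying an insulin promoter eGFP reporter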
# [7] = insulin promoter down-regulators in MIN6 cells, imaging, high-content screening, mouse beta cells (AID 1628); format: functional
# INS1 = test: beta cell apoptosis inhibitors, cytokine rescue, dose response, luminescence, retest (AID 449756); format: functional, cell-based; settings: Rattus norvegicus;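 note: cell death triggered by IL-1 beta plus TNF-alpha plus IFN-gamma mixture; protective hits raise ATP signal compared with cytokine alone wells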
# [8] = MC4R antagonists, dose response, counter-screen for LGR2 antagonist project, cell-based, plate reader, cherry pick (AID 743444); format: functional;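 note: transfected HEK 293 cells stimulated with alpha-MSH peptide; potency of inhibitors of the alpha-MSH evoked signal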
# [9] = LGR2 antagonists, dose response, cell-based, HEK293, CRE-luciferase reporter, cherry pick, set 2 (AID 743343); format: functional;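 note: transfected cells were stimulated with diluted bursicon conditioned medium after compound addition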
# H4 = test: Luminescence Cell-Based Dose Response HTS to Identify Activators of 5'UTR Stem-Loop Driven Prion Protein mRNA Translation in H4 Neuroglioblastoma Cells. [Related pubchem assays: 1829 (Project Summary), 1814 (Primary HTS)]; format: functional; settings: Homo sapiens
# [10] = Luminescence Cell-Based Dose Response HTS to Identify Activators of Luciferase Translation or Activity in H4 […] Cells. [Related pubchem assays: 1829 (Project Summary), 1814 (Primary HTS)]; format: functional
# [11] = Luminescence Cell-Based Dose Confirmation HTS to Identify Activators of 5'UTR Stem-Loop Driven Alpha-Synuclein mRNA Translation in H4 Neuroglioblastoma Cells. [Related pubchem assays: 1829 (Project Summary), 1814 (Primary HTS)]; format: functional
# [12] = C. albicans growth with fluconazole, confirmation, fluorescence, retest (AID 2467); format: functional, cell-based
# [13] = NIH-3T3 fibroblast cytotoxicity, dose response, cytotoxicity control, cell-based, fluorescence, Alamar Blue, secondary assay (AID 2327); format: functional;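 note: NIH-3T3 mouse fibroblasts cultured with fluconazole at 8 µg/mL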
# H9c2 = test: cells; format: functional, cell-based; settings: Rattus norvegicus, H9c2, Myocardium;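 note: confirmatory concentration-response retest of ultra-high-throughput screening hits for modulation of myocardial damage; cell death induced by hydrogen peroxide oxidative stress; compound pretreatment for 60 min then peroxide exposure for 2 h; potency is for protecting the cells against peroxide damage rather than for killing them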
# Paired box protein Pax-8 = Paired box protein Pax-8 (Homo sapiens, UniProt Q06710); test: inhibitors of PAX8-driven TPO luciferase reporter, dose response, RMG-I cells, cherry-pick (AID 687027); format: functional, cell-based;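 note: luciferase reporter driven by Pax8 target thyroperoxidase promoter measured by SteadyGlo luminescence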
# Paired box protein Pax-8, sequence (Q06710 whole entry): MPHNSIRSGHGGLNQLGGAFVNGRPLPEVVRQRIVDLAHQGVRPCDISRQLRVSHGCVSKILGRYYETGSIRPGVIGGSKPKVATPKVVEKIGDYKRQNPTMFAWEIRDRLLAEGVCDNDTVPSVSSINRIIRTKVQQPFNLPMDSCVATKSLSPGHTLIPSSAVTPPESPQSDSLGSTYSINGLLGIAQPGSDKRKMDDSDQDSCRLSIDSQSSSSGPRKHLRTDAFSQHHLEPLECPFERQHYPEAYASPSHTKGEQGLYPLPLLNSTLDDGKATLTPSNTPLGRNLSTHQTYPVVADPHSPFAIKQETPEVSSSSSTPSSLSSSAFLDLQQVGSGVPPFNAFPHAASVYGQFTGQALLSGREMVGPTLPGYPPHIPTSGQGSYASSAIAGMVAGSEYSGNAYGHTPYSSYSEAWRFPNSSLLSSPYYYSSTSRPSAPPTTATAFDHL
# [14] = cytotoxicity in OVCAR8 ovarian cancer cells, dose response, PAX8 project, cell-based, plate reader, dry powder samples (AID 743197); format: functional; settings: OVCAR-8
# [15] = NIH:OVCAR-3 ovarian cancer cell cytotoxicity, dose response, PAX8 inhibitor project, plate reader, dry powder samples (AID 743044); format: functional, cell-based
# [16] = target: DNA dC->dU-editing enzyme APOBEC-3G (Homo sapiens, UniProt Q9HC16); test: Dose Response confirmation of small molecule APOBEC3G DNA Deaminase Inhibitors via a fluorescence-based single-stranded DNA deaminase assay. [Related pubchem assays (depositor defined):AID493012, AID493028]; format: functional
# DNA dC->dU-editing enzyme APOBEC-3G, sequence (Q9HC16 whole entry): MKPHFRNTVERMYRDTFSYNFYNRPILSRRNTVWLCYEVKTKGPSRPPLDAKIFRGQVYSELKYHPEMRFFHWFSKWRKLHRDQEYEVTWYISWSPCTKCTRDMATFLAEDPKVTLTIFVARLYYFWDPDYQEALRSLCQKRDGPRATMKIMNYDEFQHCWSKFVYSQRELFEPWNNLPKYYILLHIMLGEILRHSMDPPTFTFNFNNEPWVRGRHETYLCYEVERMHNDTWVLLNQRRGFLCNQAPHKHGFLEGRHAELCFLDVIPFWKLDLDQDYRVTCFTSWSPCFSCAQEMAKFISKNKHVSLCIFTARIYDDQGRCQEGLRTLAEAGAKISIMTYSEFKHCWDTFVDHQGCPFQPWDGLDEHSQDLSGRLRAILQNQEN
# [17] = inhibitors of intracellular T. cruzi replication, confirmation, NIH3T3 host cells, beta-gal luminescence (AID 2044); format: functional, cell-based;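 note: intracellular parasites grown in NIH/3T3 mouse fibroblasts as host cells; luminescent beta-galactosidase reporter signal from transgenic T. cruzi replicating inside host cells; inhibitors lower the luminescence signal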
# Streptococcus = test: Group A Streptococcus viability loss, dose response, counter-screen for streptokinase expression inhibitor project, luminescence, BacTiterGlo (AID 1915); format: functional, organism-based;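 note: potency for reduction of bacterial viability or growth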
# Streptokinase A = target: T2, Streptokinase A (Streptococcus pyogenes serotype M1, UniProt P10520); test: S. pyogenes streptokinase expression inhibitors, potency, dose response, plasminogen activation absorbance, OD405 (AID 1914); format: functional, Streptococcus pyogenes M1 GAS;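 note: secreted streptokinase activity via plasminogen activation per viability signal from cell pellet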
# T2 sequence (P10520 whole entry): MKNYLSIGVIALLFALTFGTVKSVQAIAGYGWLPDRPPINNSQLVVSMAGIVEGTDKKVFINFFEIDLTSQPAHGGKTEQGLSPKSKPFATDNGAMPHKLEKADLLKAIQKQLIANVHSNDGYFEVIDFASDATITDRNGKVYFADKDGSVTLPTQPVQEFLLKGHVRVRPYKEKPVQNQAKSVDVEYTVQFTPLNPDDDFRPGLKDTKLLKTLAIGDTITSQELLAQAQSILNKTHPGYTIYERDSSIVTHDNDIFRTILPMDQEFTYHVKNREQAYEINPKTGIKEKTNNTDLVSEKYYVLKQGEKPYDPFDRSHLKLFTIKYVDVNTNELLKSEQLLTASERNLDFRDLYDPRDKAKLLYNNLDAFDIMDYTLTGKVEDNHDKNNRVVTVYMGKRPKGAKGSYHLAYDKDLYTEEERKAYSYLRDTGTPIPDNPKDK
# [18] = cytotoxicity toward NIH3T3 fibroblasts, dose response, counter-screen, cell-based, ATP luminescence, mouse fibroblasts (AID 2010); format: functional;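 note: cells exposed to compound for about 90 hours before reading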
# [19] = system: Streptococcus sp. 'group A'; test: growth inhibition of control SK(-) GAS strain, dose response, counter-screen for streptokinase expression inhibitor project, luminescence, kanamycin, BacTiterGlo, confirmation (AID 1900); format: functional, organism-based
# cells [20] = format: functional
smiles,measurement,setting,value
CSc1nc2c(ncn2C2OC(CO)C(O)C(O)C2O)c(=O)[nH]1 (stereo not drawn),GI50,SN12K1,> 100 µM (inactive)
same,GI50,P388/ADR,> 10 µM (inactive)
same,GI50,P388,> 100 µM (inactive)
CC(=O)Nc1ccc(S(=O)(=O)Nc2ccc(S(=O)(=O)Nc3nccs3)cc2)cc1,EC50,cells [1],> 350 µM (not active)
same,EC50,cells [2],> 350 µM (not active)
O=C(O)c1cccc(NS(=O)(=O)c2ccc(-c3ccc(S(=O)(=O)Nc4cccc(C(=O)O)c4)cc3)cc2)c1,IC50,Genome polyprotein,49.5 µM (active)
O=C(CSc1nncs1)N1c2ccccc2Sc2ccccc21,AC50,[3],1.56 µM (active)
c1ccc(-c2cnnc(-c3ccccn3)n2)cc1,IC50,Nonstructural protein 1,12.9 µM (active)
O=C[C@@H](CO)O[C@H](C=O)n1cnc2c(=O)nc[nH]c21,GI50,SN12K1,284 µM (inactive)
same,GI50,P388/ADR,69.2 µM (inactive)
same,GI50,P388,76 µM (inactive)
COc1ccc(/C(Cl)=C(\C=O)c2ccc(OC)c(OC)c2)cc1OC,GI50,SN12K1,80.9 µM (inactive)
same,GI50,P388/ADR,10.5 µM (inactive)
same,GI50,P388,35.3 µM (inactive)
CCOc1ccc(C(=O)N/N=C(/C)C2C(=O)c3ccccc3C2=O)cc1,CC50,[4],> 20 µM (active)
same,CC50,[5],> 40 µM (active)
Cc1nc2nc(SCC(=O)NCCCN3CCOCC3)nn2c(C)c1Cc1ccccc1,AC50,[3],5.43 µM (active)
C/C(=C/C(=O)Nc1ccccc1)Nc1onc(C)c1C,GI50,SN12K1,> 100 µM (inactive)
same,GI50,P388,> 100 µM (inactive)
CN(C(=O)CSc1nc2ccccc2c(=O)n1-c1ccccc1Cl)C1CCS(=O)(=O)C1 (stereo not drawn),AC50,[3],2.22 µM (active)
O=S(=O)(c1ccc(Br)cc1)c1nc(-c2ccccc2)oc1NCCN1CCOCC1,IC50,Nonstructural protein 1,> 100 µM (active)
Cc1cc(C(=O)CSc2nc3ccccc3[nH]2)c(C)n1Cc1ccco1,IC50,[6],1.29 µM (active)
same,IC50,[7],1.93 µM (active)
COc1ccc(/C=N/NC(=O)c2nc(-c3ccccc3)n(-c3ccccc3)n2)c(O)c1,EC50,cells [1],10.1 µM (active)
same,AC50,INS1,1.47 µM (active)
same,EC50,cells [2],> 350 µM (not active)
CN1C(=O)NC(=O)/C(=C/c2ccc(C(=O)O)cc2)C1=O,IC50,Genome polyprotein,85.1 µM (active)
Cc1ccc(-c2nn3c(C)nnc3s2)cc1NCc1c(F)cccc1Cl,IC50,[6],5.76 µM (active)
same,IC50,[7],3.44 µM (active)
O=C1C=C(c2ccccc2)CC(c2cccs2)C1n1cnc([N+](=O)[O-])c1 (stereo not drawn),EC50,cells [1],> 350 µM (not active)
same,EC50,cells [2],> 350 µM (not active)
COc1ccc2c(c1)OCCc1cn[nH]c1-2,GI50,SN12K1,38.2 µM (inactive)
same,GI50,P388/ADR,34 µM (inactive)
same,GI50,P388,32.5 µM (inactive)
COc1ccc2c(c1)-c1nn(CCCN(C)C)c3ccc([N+](=O)[O-])c(c13)N2,GI50,SN12K1,0.119 µM (active)
same,GI50,P388/ADR,0.281 µM (active)
same,GI50,P388,0.163 µM (active)
COc1ccc(OC)c(C2=Nn3c(nnc3-c3cc(C)[nH]n3)SC2)c1,EC50,cells [1],> 350 µM (not active)
same,EC50,cells [2],> 350 µM (not active)
Cc1ccc(-c2nnc(-c3ccccc3Br)o2)cc1,AC50,[8],20.3 µM (active)
same,AC50,[9],14.3 µM (active)
C=CCOc1ccccc1/C=c1\sc2nc(=O)c(C)nn2c1=O,IC50,Genome polyprotein,12.1 µM (active)
C/C=C/c1ccc2c(c1)O[C@@H](CN(C)C(=O)Cc1cccnc1)[C@H](C)CN([C@H](C)CO)S2(=O)=O,AC50,[3],10.3 µM (active)
CC(Oc1ccc2c(-c3ccccc3)cc(=O)oc2c1)C(=O)NCc1ccccn1 (stereo not drawn),AC50,[3],8.99 µM (active)
COc1ccc2oc(=O)c(C(=O)NC3CCCCCC3)cc2c1,EC50,cells [1],> 350 µM (not active)
same,EC50,H4,19.8 µM (active)
same,EC50,cells [2],> 350 µM (not active)
same,EC50,[10],32.6 µM (active)
same,EC50,[11],28.6 µM (active)
COc1cccc(N[C@@H]2c3cc4c(cc3C(c3cc(OC)c(O)c(OC)c3)[C@H]3C(=O)OCC32)OCO4)c1 (stereo partly drawn),GI50,SN12K1,0.0615 µM (active)
same,GI50,P388/ADR,0.0635 µM (active)
same,GI50,P388,< 0.01 µM (active)
CCOc1cccc(-c2c(C(=O)N/N=C(\C)c3ccccn3)nnn2-c2nonc2N)c1,EC50,[12],> 38 µM (not active)
same,EC50,cells [1],6.32 µM (active)
same,IC50,Nonstructural protein 1,3.36 µM (active)
same,EC50,[13],18.2 µM (active)
same,EC50,cells [2],> 350 µM (not active)
same,IC50,H9c2,> 79 µM (inactive)
C[C@@H]1CCCCO[C@H](CN(C)C(=O)Nc2ccc(F)cc2)[C@@H](C)CN([C@@H](C)CO)C(=O)c2cc(NS(=O)(=O)c3ccc(Cl)cc3)ccc2O1,AC50,Paired box protein Pax-8,4.84 µM (active)
same,AC50,[14],35 µM (active)
same,AC50,[15],19.6 µM (active)
COC(=O)/C=c1/sc2nc3ccccc3n2c1=O,IC50,[16],30.8 µM (active)
Cn1cccc1C(=O)Nc1nc(-c2ccccn2)cs1,EC50,[17],2.28 µM (active)
same,EC50,Streptococcus,58.3 µM (active)
same,EC50,Streptokinase A,> 150 µM (not active)
same,IC50,Nonstructural protein 1,11 µM (active)
same,EC50,[18],4.47 µM (active)
same,EC50,[19],18.4 µM (active)
Cn1c(-c2cc(Br)ccc2O)n[nH]c1=S,EC50,Streptokinase A,> 150 µM (not active)
same,IC50,[16],8.33 µM (active)
Cc1cc(C)c2nc(N=C(N)NC(=O)Nc3ccccc3)nc(C)c2c1,IC50,cells [20],8.18 µM (active)
same,CC50,[4],> 20 µM (active)
same,CC50,[5],> 40 µM (active)

# From ChEMBL document CHEMBL1201862, “PubChem BioAssay data set” (2004)
